The source made the active and inactive calls.
Experiments:
[1] = molecular target: DNA damage-inducible transcript 3 protein (Mus musculus, UniProt P35639); assay type: functional, Cricetulus griseus
[2] = luciferase reporter signal suppression in cells – H4 neuroglioma cells, luminescence, dose response (AID 1990); assay type: functional, cell-based
[3] = THP-1 cell cytotoxicity, dose response, cytotoxicity control for non-replicating M. tuberculosis project (AID 489025); assay type: functional
[4] = Luminescence Cell-Based Dose Response HTS to Identify Inhibitors of 5'UTR Stem-Loop Driven Prion Protein mRNA Translation in H4 Neuroglioblastoma Cells. [Related pubchem assays: 1827 (Project Summary), 1813 (Primary HTS)]; assay type: functional
[5] = loss of viability in HepG2 cells – cell-based, CellTiter-Glo, cherry-picked, cytotoxicity control for Shn3 inhibitor project, dose response (AID 624134); assay type: functional
[6] = HepG2 cell cytotoxicity, dose response, cytotoxicity control for non-replicating M. tuberculosis project (AID 489018); assay type: functional; conditions: Mycobacterium tuberculosis
[7] = reduction of Shn3 3'UTR-driven luciferase in osteoblasts – cell-based, Clone20 osteoblasts, firefly luciferase, cherry-picked, dose response (AID 624132); assay type: functional;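 also: firefly luciferase luminescence from reporter carrying the Shn3 3'UTR in osteoblasts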
[8] = Vero E6 cell cytotoxicity, dose response, cytotoxicity control for non-replicating M. tuberculosis project, secondary assay (AID 492998); assay type: functional, VeroE6; conditions: Vero C1008
[9] = alpha-synuclein stem-loop luciferase translation blockers – H4 neuroglioma cells, luminescence, confirmation (AID 1988); assay type: functional, cell-based
[10] = non-specific 3'UTR reporter inhibition in Clone20-Shn3RL – cell-based, Renilla luciferase, cherry-picked, counter-screen for Shn3 inhibitor project, dose response (AID 624133); assay type: functional
[11] = cells; assay type: functional
[12] = molecular target: T1, Delta-type opioid receptor (Homo sapiens, UniProt P41143); test: HTS Image-Based Screen for Agonists of the DOR Receptor. [Related pubchem assays (depositor defined):AID1777, AID1786, AID2133]; assay type: functional
T1 sequence (P41143 whole entry): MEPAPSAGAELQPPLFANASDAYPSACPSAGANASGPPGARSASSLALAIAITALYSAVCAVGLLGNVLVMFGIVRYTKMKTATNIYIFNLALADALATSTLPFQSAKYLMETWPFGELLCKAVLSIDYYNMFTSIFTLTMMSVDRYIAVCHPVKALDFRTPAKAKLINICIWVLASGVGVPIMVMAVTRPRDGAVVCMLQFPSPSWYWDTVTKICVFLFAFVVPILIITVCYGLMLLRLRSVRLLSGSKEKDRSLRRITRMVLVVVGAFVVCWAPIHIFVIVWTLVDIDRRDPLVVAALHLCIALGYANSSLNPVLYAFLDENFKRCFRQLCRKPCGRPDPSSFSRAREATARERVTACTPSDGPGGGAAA

[13] = molecular target: Mu-type opioid receptor (Homo sapiens, UniProt P35372); test: HTS Image-Based Screen for Agonists of the MOR Receptor. [Related pubchem assays (depositor defined):AID1777, AID1785, AID1786, AID2133]; assay type: functional;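 also: imaging of beta-arrestin GFP recruitment into spots after receptor activation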
Chain of Mu-type opioid receptor (P35372 whole entry): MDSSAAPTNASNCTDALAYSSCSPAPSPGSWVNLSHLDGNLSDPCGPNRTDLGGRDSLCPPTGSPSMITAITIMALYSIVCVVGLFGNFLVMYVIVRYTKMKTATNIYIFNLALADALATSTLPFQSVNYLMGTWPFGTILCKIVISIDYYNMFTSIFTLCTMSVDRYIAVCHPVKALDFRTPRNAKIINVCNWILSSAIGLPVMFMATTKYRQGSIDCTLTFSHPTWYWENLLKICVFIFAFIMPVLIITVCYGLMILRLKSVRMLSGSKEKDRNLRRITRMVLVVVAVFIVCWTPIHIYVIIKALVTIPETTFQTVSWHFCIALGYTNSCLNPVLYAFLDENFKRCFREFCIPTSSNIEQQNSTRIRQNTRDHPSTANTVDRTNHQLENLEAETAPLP

[14] = molecular target: T2, Kappa-type opioid receptor (Homo sapiens, UniProt P41145); assay type: functional
T2 sequence (P41145 whole entry): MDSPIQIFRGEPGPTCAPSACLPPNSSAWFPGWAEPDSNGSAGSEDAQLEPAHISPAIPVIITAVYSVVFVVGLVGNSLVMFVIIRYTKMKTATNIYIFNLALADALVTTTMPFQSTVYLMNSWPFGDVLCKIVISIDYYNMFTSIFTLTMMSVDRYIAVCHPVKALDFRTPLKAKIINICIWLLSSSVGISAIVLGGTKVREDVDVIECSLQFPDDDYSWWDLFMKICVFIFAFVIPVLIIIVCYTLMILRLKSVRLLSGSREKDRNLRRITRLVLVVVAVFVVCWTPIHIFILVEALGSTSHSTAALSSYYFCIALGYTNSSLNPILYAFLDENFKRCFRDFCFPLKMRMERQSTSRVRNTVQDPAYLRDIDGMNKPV

[15] = molecular target: Glucose-6-phosphate 1-dehydrogenase (Homo sapiens, UniProt P11413); test: inhibition of Homo sapiens G6PD, dose series – biochemical, fluorescence, selectivity assay for P. falciparum G6PD inhibitor project, dose response (AID 504792); assay type: functional
Chain of Glucose-6-phosphate 1-dehydrogenase (P11413 whole entry): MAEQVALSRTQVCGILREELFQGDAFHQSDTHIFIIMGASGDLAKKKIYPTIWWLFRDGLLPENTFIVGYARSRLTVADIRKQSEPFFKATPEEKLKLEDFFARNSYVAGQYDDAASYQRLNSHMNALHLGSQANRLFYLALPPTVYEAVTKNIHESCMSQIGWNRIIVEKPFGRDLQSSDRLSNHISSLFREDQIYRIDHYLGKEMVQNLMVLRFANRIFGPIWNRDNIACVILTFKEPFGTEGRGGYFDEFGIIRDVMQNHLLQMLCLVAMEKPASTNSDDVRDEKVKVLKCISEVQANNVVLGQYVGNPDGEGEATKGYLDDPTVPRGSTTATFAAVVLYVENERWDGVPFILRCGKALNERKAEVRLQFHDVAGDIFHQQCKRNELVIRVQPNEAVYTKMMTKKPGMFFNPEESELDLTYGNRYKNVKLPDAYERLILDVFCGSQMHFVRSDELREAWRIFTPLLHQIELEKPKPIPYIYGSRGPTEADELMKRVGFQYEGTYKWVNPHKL

[16] = molecular target: T2, Kappa-type opioid receptor; assay type: functional; remark: listed apart in the source
[17] = molecular target: T1, Delta-type opioid receptor; test: HTS Image-Based Screen for Antagonists of the DOR Receptor. [Related pubchem assays (depositor defined):AID1777, AID1785, AID1786, AID2133]; assay type: functional
[18] = molecular target: T3, Beta-galactosidase (Escherichia coli, UniProt Q8VNN2); assay type: functional
T3 sequence (Q8VNN2 whole entry): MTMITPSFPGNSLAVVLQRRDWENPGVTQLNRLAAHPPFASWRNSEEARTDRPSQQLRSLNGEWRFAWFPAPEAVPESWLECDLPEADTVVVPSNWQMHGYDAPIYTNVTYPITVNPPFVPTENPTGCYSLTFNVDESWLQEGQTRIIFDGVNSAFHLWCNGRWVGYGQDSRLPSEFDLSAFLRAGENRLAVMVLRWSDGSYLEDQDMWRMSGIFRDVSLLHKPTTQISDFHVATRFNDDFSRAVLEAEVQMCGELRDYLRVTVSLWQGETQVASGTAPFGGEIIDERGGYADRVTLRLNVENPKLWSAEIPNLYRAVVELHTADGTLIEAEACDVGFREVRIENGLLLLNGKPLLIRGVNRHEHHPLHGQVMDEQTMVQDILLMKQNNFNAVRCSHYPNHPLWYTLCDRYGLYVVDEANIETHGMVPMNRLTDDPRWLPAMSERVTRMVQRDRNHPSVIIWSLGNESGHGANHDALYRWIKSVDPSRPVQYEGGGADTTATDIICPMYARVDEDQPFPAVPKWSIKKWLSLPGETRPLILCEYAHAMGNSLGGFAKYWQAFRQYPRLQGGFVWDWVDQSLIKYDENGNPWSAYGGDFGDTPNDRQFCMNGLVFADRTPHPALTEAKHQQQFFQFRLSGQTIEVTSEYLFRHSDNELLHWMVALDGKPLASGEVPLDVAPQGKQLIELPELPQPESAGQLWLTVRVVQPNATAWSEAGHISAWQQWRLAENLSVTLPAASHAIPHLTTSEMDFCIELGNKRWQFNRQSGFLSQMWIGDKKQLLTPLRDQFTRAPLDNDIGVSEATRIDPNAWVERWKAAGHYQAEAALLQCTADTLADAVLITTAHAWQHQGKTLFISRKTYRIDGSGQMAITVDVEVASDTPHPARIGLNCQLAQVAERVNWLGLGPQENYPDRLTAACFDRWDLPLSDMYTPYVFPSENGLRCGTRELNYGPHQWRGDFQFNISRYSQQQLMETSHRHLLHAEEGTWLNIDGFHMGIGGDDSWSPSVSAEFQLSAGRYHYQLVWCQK

[19] = molecular target: Glyceraldehyde-3-phosphate dehydrogenase (Homo sapiens, UniProt P04406)
Chain of Glyceraldehyde-3-phosphate dehydrogenase (P04406 whole entry): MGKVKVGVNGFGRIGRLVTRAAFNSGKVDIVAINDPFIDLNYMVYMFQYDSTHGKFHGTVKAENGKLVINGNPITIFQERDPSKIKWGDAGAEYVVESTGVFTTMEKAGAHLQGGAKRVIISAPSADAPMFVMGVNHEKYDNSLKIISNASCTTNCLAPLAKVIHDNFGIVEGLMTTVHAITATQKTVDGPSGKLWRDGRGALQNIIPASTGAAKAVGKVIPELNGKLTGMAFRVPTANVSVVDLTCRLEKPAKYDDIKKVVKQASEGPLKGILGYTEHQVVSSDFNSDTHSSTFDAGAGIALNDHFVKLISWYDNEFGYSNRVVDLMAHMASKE

[20] = molecular target: T4, Alkaline phosphatase, tissue-nonspecific isozyme (Homo sapiens, UniProt P05186); test: potency against alkaline phosphatase TNAP – biochemical, luminescent, dose response, SAR follow-up (AID 1056)
T4 sequence (P05186 whole entry): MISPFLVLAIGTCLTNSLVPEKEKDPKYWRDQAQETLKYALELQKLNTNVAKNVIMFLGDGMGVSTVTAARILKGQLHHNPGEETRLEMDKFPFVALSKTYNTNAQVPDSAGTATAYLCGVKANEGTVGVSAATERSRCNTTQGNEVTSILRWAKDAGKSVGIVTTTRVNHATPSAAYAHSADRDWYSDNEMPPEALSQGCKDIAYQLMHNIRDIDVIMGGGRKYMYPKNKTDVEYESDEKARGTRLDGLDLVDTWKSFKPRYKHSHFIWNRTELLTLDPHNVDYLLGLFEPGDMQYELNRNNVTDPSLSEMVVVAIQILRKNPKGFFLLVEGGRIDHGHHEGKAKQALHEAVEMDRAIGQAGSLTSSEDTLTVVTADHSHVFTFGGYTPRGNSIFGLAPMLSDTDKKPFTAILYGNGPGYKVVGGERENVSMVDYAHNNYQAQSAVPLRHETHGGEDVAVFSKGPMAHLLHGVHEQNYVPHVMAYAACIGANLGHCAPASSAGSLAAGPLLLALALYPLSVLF

[21] = molecular target: Alkaline phosphatase, placental type (Homo sapiens, UniProt P05187); test: human placental alkaline phosphatase inhibition – biochemical, luminescence, confirmation (AID 1512); assay type: functional
Chain of Alkaline phosphatase, placental type (P05187 whole entry): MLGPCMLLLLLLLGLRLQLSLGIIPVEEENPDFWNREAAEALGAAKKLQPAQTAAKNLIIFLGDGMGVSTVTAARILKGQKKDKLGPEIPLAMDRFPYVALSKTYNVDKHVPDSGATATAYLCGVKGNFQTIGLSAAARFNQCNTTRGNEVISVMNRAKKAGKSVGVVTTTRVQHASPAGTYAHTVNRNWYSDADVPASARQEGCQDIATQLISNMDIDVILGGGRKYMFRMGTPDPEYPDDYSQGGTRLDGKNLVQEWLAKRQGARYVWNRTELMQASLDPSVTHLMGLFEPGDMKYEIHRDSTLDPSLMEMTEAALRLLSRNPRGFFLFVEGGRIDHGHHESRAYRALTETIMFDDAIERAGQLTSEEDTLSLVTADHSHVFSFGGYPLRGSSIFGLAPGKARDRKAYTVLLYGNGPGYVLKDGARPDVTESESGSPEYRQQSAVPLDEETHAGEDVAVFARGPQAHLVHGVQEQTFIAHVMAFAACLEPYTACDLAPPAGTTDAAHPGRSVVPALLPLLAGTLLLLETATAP

[22] = fluconazole-exposed Candida albicans growth modulators – fluorescence, retest, confirmation (AID 2467); assay type: functional, cell-based
[23] = NIH-3T3 fibroblast cytotoxicity, dose response, cytotoxicity control, cell-based, fluorescence, Alamar Blue, secondary assay (AID 2327); assay type: functional;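 also: NIH-3T3 mouse fibroblasts cultured with fluconazole at 8 µg/mL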
[24] = molecular target: T5, Type-1 angiotensin II receptor (Homo sapiens, UniProt P30556); test: antagonism of angiotensin II type 1 receptor – cell-based, uHTS hits, selectivity assay for APJ receptor antagonist project, dose response (AID 463214); assay type: functional;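 also: antagonist potency against angiotensin II stimulated AT1 response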
T5 sequence (P30556 whole entry): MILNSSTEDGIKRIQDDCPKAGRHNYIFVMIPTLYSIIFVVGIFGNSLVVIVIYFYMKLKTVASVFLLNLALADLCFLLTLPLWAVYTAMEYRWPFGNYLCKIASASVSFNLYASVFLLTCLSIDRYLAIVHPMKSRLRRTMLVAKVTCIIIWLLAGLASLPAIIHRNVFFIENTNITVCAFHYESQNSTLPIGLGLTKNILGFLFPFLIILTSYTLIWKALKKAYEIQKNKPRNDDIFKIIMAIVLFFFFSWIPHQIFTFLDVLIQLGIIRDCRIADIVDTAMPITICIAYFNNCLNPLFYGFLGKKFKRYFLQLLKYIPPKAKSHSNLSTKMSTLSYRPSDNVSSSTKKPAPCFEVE

[25] = molecular target: T3, Beta-galactosidase; test: PubChem AID 485352; assay type: functional
[26] = molecular target: Heat shock protein HSP 90-alpha (Homo sapiens, UniProt P07900); assay type: functional, organism-based
[27] = test system: Streptococcus; test: GAS UMAA2166 growth inhibition – luminescence, BacTiterGlo, counter-screen for streptokinase expression inhibitor project, dose response (AID 1915); assay type: functional, organism-based;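 also: potency for reduction of bacterial viability or growth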
[28] = test system: INS1; test: INS-1E survival protection against cytokine death – cell-based, luminescence, retest, dose response (AID 449756); assay type: functional; conditions: Rattus norvegicus;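 also: cell death triggered by IL-1 beta plus TNF-alpha plus IFN-gamma mixture; protective hits raise ATP signal compared with cytokine alone wells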
[29] = NIH3T3 cell viability loss – ATP luminescence, mouse fibroblasts, counter-screen, dose response (AID 2010); assay type: functional, cell-based;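 also: cells exposed to compound for about 90 hours before reading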
[30] = molecular target: T6, Heat shock factor protein 1 (Mus musculus, UniProt P38532); test: enhancement of HSF1-driven luciferase signal – cell-based, NIH3T3, luminescence, dose retest, confirmation (AID 435004); assay type: functional;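 also: stress induced by proteasome inhibitor MG132 added 30 min after compound; luciferase reporter driven by HSF1 response element in NIH3T3 cells; actives raise luminescence as potentiators of the MG132 stress response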
T6 sequence (P38532 whole entry): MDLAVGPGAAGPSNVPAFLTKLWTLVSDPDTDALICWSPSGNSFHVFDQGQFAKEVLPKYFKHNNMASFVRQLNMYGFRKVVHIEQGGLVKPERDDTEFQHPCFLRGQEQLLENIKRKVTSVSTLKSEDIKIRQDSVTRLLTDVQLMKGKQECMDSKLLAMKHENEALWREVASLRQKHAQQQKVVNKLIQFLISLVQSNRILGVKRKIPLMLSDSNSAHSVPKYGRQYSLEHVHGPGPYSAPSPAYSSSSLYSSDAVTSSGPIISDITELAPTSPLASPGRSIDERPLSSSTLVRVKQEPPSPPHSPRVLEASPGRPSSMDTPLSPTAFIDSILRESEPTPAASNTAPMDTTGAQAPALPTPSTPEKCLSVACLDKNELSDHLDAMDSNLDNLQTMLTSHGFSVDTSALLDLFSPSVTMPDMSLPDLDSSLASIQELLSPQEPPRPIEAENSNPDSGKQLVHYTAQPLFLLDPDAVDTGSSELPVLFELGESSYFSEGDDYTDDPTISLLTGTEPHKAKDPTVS

[31] = test system: Streptococcus sp. 'group A'; test: Streptococcus pyogenes SK(-)GAS viability under kanamycin – luminescence, BacTiterGlo, confirmation, counter-screen for streptokinase expression inhibitor project, dose response (AID 1900); assay type: functional, organism-based
[32] = molecular target: T7, Streptokinase A (Streptococcus pyogenes serotype M1, UniProt P10520); test: viability-normalized secreted streptokinase activity reduction – plasminogen activation absorbance, OD405, dose response (AID 1914); assay type: functional, Streptococcus pyogenes M1 GAS;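 also: secreted streptokinase activity via plasminogen activation per viability signal from cell pellet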
T7 sequence (P10520 whole entry): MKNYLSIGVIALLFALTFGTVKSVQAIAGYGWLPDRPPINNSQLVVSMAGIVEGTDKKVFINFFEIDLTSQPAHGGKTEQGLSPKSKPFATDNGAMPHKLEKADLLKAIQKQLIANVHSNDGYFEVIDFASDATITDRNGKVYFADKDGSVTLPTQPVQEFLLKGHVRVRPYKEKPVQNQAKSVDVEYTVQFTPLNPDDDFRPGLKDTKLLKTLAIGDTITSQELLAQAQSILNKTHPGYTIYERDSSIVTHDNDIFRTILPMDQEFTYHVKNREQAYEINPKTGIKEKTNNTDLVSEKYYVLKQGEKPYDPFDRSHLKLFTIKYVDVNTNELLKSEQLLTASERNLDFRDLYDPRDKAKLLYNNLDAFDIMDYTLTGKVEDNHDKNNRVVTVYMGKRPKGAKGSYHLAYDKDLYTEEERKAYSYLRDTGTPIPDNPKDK

[33] = Trypanosoma cruzi growth suppression in host cells – NIH3T3 host cells, beta-gal luminescence, confirmation (AID 2044); assay type: functional, cell-based;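 also: intracellular parasites grown in NIH/3T3 mouse fibroblasts as host cells; luminescent beta-galactosidase reporter signal from transgenic T. cruzi replicating inside host cells; inhibitors lower the luminescence signal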
[34] = test system: Vero; test: cells; assay type: functional; conditions: Chlorocebus sabaeus
[35] = molecular target: Nonstructural protein 1 (Influenza A virus, UniProt Q194T2); assay type: functional, Influenza A virus (A/California/07/2009(H1N1))
Chain of Nonstructural protein 1 (Q194T2 whole entry): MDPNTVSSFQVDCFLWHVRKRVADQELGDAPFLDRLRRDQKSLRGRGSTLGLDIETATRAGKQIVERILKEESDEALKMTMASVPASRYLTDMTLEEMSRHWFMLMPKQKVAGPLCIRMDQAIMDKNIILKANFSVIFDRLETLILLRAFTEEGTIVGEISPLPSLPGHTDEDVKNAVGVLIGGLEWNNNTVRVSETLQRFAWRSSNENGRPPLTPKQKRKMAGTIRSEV

Chain of DNA damage-inducible transcript 3 protein (P35639 whole entry): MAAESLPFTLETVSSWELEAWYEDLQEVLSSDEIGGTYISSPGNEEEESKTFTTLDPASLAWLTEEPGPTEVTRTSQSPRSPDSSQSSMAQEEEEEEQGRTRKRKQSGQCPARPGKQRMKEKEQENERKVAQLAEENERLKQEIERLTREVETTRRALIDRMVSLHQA

Compound: COc1ccc(CNc2oc(-c3cccc4ccccc34)nc2C#N)cc1
- Absolute IC50 (CHOP) [1]: 10 µM

Compound: CCOc1cccc(CNCCc2c(C)[nH]c3ccc(OC(F)(F)F)cc23)c1O
- EC50 [2]: > 120 µM (not active)
- CC50 [3]: 6.17 µM (active)
- EC50 [4]: 17.2 µM (active)
- AC50 [5]: 8.24 µM (active)
- CC50 [6]: 5.75 µM (active)
- AC50 [7]: 0.611 µM (active)
- CC50 [8]: 9.94 µM (active)
- EC50 [9]: 11.2 µM (active)
- AC50 [10]: 18.1 µM (active)
- IC50 [11]: 10.5 µM (active)

Compound: CC1CCc2c(nc3sc4c(c3c2N)CCCC4)C1 (configuration not stated)
- EC50 [12]: > 32 µM (inactive)
- EC50 [13]: > 32 µM (inactive)
- IC50 [14]: 2.2 µM (active)
- IC50 [15]: > 80 µM (inactive)
- IC50 [16]: > 32 µM
- IC50 [17]: > 32 µM (inactive)
- EC50 [18]: > 31.5 µM (inactive)

Compound: O=C(NNc1ccccc1[N+](=O)[O-])Nc1ccc(Cl)c(Cl)c1
- Absolute IC50 (CHOP) [1]: 10 µM

Compound: COc1ccc(CCc2nc(N)nn2-c2ccccc2)cc1OC
- IC50 [19]: > 100 µM (not active)
- IC50 [20]: > 100 µM (inactive)
- IC50 [21]: > 100 µM (inactive)

Compound: Oc1cc(CSc2ccc(Cl)cc2)nc(-c2ccccn2)n1
- EC50 [12]: > 32 µM (inactive)
- EC50 [13]: > 32 µM (inactive)
- IC50 [14]: 4.86 µM (active)
- EC50 [22]: 0.1 µM (active)
- EC50 [23]: 9.84 µM (active)
- IC50 [24]: 13 µM (active)
- EC50 [25]: > 40 µM (inactive)
- AC50 [26]: 23.3 µM (active)
- EC50 [27]: 6.82 µM (active)
- IC50 [16]: > 32 µM
- AC50 [28]: 2.74 µM (active)
- EC50 [29]: 5.92 µM (active)
- EC50 [30]: 5.93 µM (active)
- IC50 [17]: > 32 µM (inactive)
- EC50 [18]: > 31.5 µM (inactive)
- EC50 [31]: 0.489 µM (active)
- EC50 [32]: > 150 µM (not active)
- EC50 [33]: 0.549 µM (active)
- CC50 [34]: 5.82 µM (active)
- IC50 [35]: 14.4 µM (active)
